Results on five molecules are retold here after PMC8402032, “Unsymmetric Cisplatin-Based Pt(IV) Conjugates Containing a PARP-1 Inhibitor Pharmacophore Tested on Malignant Pleural Mesothelioma Cell Lines” (Molecules, 2021).

The structures appear in SMILES notation. Like-named read-outs stand apart in the source and are kept apart here.

In data set [1] the test system is BR95 (epithelioid) malignant pleural mesothelioma cells. Nature of the data set: Cell viability assay (Trypan blue dye exclusion), BR95. The class given is cell-based, human. To be noted: 72 h treatment; for IC50: mean ± sd. As to the method:
(§1) Complexes 6–9 were tested on a panel of human MPM cell lines together with CDDP and SAA1, added for comparison (Table 1). The half-maximal inhibitory concentration, IC50, was determined on MSTO-211H (biphasic phenotype), REN (epithelioid), BR95 (epithelioid), and MM98 (sarcomatoid) cancer cell lines to identify the most promising Pt(IV) conjugate to be further investigated. To determine the number of viable cells, the use of the dye exclusion assay was preferred to the colorimetric assay because of the heterogeneity in the energy metabolism between the different MPM cell lines. This may justify minor differences with respect to the previously published IC50 for CDDP [40].
(§2) Cells were seeded at a density of 10 × 10^4 cells per well in 6-well plates in RPMI medium supplemented with 10% fetal bovine serum (FBS), 100 μg mL^−1 streptomycin, and 10 μg mL^−1 penicillin and incubated overnight at 37 °C in a humidified environment containing 5% CO2 to allow adherence. Cisplatin was dissolved in 0.9% w/v aqueous NaCl brought to pH = 3 with HCl (final stock concentration 1 mM). The Pt(IV) complexes were dissolved in DMSO (final stock concentration 5 mM); the resulting solutions were microfiltered (0.45 μm) and their Pt content was checked by ICP-MS (see Section 3.5.2). These mother solutions were diluted in complete medium to the required concentration range.
(§3) Following 72 h of treatment with the diluent of the compound (Ctrl) or different doses of the Pt compounds, cells were trypsinized and stained with Trypan blue. The number of cells considered viable (unstained cells) was counted in a Bürker haemocytometer within 5 min after staining.

The subject of data set [2] is MSTO-211H cells. Nature of the data set: Cell uptake (intracellular Pt by ICP-MS). The data set is classed as cell-based, human. Particulars: 10 μM, 4 h treatment, mean ± sd. As to the method:
Cellular accumulation of compounds 6–9 was evaluated by means of the intracellular Pt uptake after 4 h treatment of MSTO-211H cells and expressed as ng Pt per 10^6 cells (Table 1). As expected, the Fmoc protection of 6 and 7 enhances the lipophilicity of the complexes, facilitating their cell uptake. Also the elongation of the organic linker from -(CH2)2- to -(CH2)6- increases (to a minor extent) the lipophilicity in 7 and 9 with respect to 6 and 8.
MSTO-211H cells were seeded in […] Petri dishes and challenged with the compounds and mixtures under investigations (10 μM) in complete medium. At the end of the exposure, cells were washed three times with phosphate buffered saline (PBS) and detached from the Petri dishes using 0.05% Trypsin 1X + 2% EDTA (HyClone, Thermo Fisher). The cells were harvested in fresh complete medium and an automatic cell counting device (Countess®, Life Technologies, Carlsbad, CA, USA) was used to measure the number and the mean diameter from every cell count. The harvested cells were transferred into a borosilicate glass tube and centrifuged at 1100× g rpm for 5 min at room temperature. The supernatant was carefully removed by aspiration, but about 200 μL of the supernatant was left in order to limit the cellular loss. Finally, the cellular pellets were stored at −80 °C. Platinum content determination was performed by ICP-MS (Thermo Optek X Series 2). Complete mineralization was obtained by the addition of 70% w/w HNO3 to each sample (after defrosting), followed by incubation for 1 h at 60 °C in an ultrasonic bath. Before the ICP-MS measurement, the HNO3 was diluted to a final 1% concentration. The instrumental settings were optimized to yield maximum sensitivity for platinum, and the most abundant isotopes of Pt (m/z = 195) and In (m/z = 115, used as internal standard) were quantified. The level of Pt found in cells after the treatment was normalized to the cell number and expressed as ng of Pt per 10^6 cells.

Data set [3] concerns the target T1, PARP-1 (Homo sapiens, UniProt P09874).
T1 construct: endogenous in cells; host or cells: MSTO-211H cells
Nature of the data set: Western blot of poly(ADP-ribose) (PAR) and PARP-1 in MSTO-211H cells. The class given is cell-based. Particulars: 5 µM, 72 h. As to the method:
The effect of the most promising complex 6 on PARP-1 activity was further evaluated. MSTO-211H cells were treated with equimolar concentrations (5 µM) of 6, CDDP, and 3-ABA for 72 h. The two last compounds were used either alone or in combination in a 1:1 molar ratio. Western blot analysis evaluated the expression of poly(ADP-ribose) (PAR), which is the product of PARP-1 activity (Figure 4A).
For protein analysis, cells were extracted with 1% NP-40 lysis buffer (50 mM Tris-HCl pH 8.5 containing 1% NP-40, 150 mM NaCl, 10 mM EDTA, 10 mM NaF, 10 mM Na4P2O7, and 0.4 mM Na3VO4) with freshly added protease inhibitors (10 μg mL^−1 leupeptin, 4 μg mL^−1 pepstatin, and 0.1 U mL^−1 aprotinin). Lysates were centrifuged at 13,000× g for 10 min at 4 °C and the supernatants were collected and assayed for protein concentration with the Bradford assay method (Bio-Rad). Proteins were separated by SDS-PAGE (sodium dodecyl sulfate polyacrylamide gel electrophoresis) under reducing conditions. Following SDS-PAGE, proteins were transferred to nitrocellulose, reacted with specific antibodies, and then detected with peroxidase-conjugate secondary antibodies and chemioluminescent ECL reagent. Digital images were taken with the Bio-Rad ChemiDocTM Touch Imaging System and quantified using Bio-Rad Image Lab 5.2.1.
Figure 4 (A) Representative Western blot showing poly(ADP-ribose) (PAR) and PARP-1 expression following 72 h MSTO-211H cell treatment with diluent (Ctrl) or 5 µM concentrations of cisplatin (CDDP), 6, CDDP + 3-ABA combination (1:1 ratio), and 3-ABA alone. HSC70 protein was used as loading control. (B) Immunocytochemistry was used to capture representative γH2AX focus images following 72 h MSTO-211H cell treatment with diluent (Ctrl) or 5 µM of complex 6.
For orientation: A western blot detects proteins with antibodies after separation by electrophoresis.

Data set [4] relates to MM98 (sarcomatoid) malignant pleural mesothelioma cells. Description: Cell viability assay (Trypan blue dye exclusion), MM98. The data set is classed as cell-based, human. To be noted: 72 h treatment; for IC50: mean ± sd. Here is the method: as §1, §2, §3
The subject of data set [5] is MSTO-211H (biphasic phenotype) malignant pleural mesothelioma cells. Description: Cell viability assay (Trypan blue dye exclusion), MSTO-211H. The data set is classed as cell-based, human. Here is the method:
as §1, §2, §3

Data set [6] deals with REN (epithelioid) malignant pleural mesothelioma cells. Description: Cell viability assay (Trypan blue dye exclusion), REN. The data set is classed as cell-based, human. Particulars: 72 h treatment; for IC50: mean ± sd. Here is the method: as §1, §2, §3
Data set [7] can be described thus: Lipophilicity by RP-HPLC (log k′). The data set is classed as physicochemical. Particulars: RP-HPLC C18, 15 mM formic acid/CH3OH 30/70. The source says: Since it has been reported that Pt(IV) complexes enter cells by passive diffusion only, with a few exceptions, the evaluation of lipophilicity is key because it is related to the ability of a molecule to passively cross cellular membranes. RP-HPLC techniques are often used to measure the lipophilicity of a compound, since the retention is due to partitioning between the C18 chains of the stationary phase (representing the cellular membrane) and the aqueous eluent (representing the water inside and outside cells). For this purpose, the retention times (tR) of the complexes were transformed as log k′, where k′ = (tR − t0)/t0) and t0 is the column dead-time (Table 1).
RP-HPLC was used to evaluate the capacity factors of the compounds as reported elsewhere. Briefly, a chromatogram for each Pt complex (0.5 mM) was run on a C18 column Phenosphere-NEXT (5-μm, 250 × 4.6 mm ID) with an eluant composition of 15 mM formic acid/CH3OH 30/70 and a flow rate of 0.5 mL min^−1. The corresponding retention time tR was used to calculate log k′, where k′ = (tR − t0)/t0. The dead time of the column t0 was the tR of KCl, added as unretained internal reference.

The nature of data set [8]: Reduction with ascorbic acid followed by RP-HPLC. The data set is classed as physicochemical. Particulars: ascorbic acid 10 mM, HEPES 50 mM pH 7.4, 37 °C, cosolvent DMF or MeOH. Here is the method:
To verify the activation by reduction mechanism, complexes 6–9 were challenged with the model bioreductant ascorbic acid (AA, 10 mM in water) in HEPES buffer (HEPES = 4-(2-hydroxyethyl)-1-piperazineethanesulfonic acid, 50 mM, pH = 7.4) at 37 °C. The reaction was monitored by following the RP-HPLC peaks over 24 h. The different solubility and retention times required different experimental conditions for the different compounds (cosolvent DMF or MeOH was necessary to maintain the Pt compounds in solution, >5% v/v). For these reasons, complete reduction for 8 and 9 was observed after 8 h, whereas for 6 and 7, the >85% peak area disappeared after 24 h only. […] Complexes 6–9, having very similar coordination skeletons, can be expected to behave in the same way.
The reduction of complexes with ascorbic acid was followed by monitoring of the reduction of the area of their chromatographic peaks via RP-HPLC over 24 h at 37 °C. The Pt compounds were dissolved in methanol or DMF (up to 20 mM) and diluted with different quantities of 50 mM 4-(2-hydroxyethyl)piperazine-1-ethanesulfonic acid (HEPES) buffer (pH = […]) containing 10 mM ascorbic acid. The mixtures were microfiltered to eliminate the precipitated complex. The chromatographic conditions were similar to those for the determination of lipophilicity (see Section 3.4), with different percentages of methanol depending on the complex.

The mark [9] stands for this setting: 72 h treatment, mean ± sd, read-out: IC50 MSTO-211H.

As usually defined, the IC50 is the midpoint of a concentration-inhibition curve.

T1 sequence (P09874 whole entry): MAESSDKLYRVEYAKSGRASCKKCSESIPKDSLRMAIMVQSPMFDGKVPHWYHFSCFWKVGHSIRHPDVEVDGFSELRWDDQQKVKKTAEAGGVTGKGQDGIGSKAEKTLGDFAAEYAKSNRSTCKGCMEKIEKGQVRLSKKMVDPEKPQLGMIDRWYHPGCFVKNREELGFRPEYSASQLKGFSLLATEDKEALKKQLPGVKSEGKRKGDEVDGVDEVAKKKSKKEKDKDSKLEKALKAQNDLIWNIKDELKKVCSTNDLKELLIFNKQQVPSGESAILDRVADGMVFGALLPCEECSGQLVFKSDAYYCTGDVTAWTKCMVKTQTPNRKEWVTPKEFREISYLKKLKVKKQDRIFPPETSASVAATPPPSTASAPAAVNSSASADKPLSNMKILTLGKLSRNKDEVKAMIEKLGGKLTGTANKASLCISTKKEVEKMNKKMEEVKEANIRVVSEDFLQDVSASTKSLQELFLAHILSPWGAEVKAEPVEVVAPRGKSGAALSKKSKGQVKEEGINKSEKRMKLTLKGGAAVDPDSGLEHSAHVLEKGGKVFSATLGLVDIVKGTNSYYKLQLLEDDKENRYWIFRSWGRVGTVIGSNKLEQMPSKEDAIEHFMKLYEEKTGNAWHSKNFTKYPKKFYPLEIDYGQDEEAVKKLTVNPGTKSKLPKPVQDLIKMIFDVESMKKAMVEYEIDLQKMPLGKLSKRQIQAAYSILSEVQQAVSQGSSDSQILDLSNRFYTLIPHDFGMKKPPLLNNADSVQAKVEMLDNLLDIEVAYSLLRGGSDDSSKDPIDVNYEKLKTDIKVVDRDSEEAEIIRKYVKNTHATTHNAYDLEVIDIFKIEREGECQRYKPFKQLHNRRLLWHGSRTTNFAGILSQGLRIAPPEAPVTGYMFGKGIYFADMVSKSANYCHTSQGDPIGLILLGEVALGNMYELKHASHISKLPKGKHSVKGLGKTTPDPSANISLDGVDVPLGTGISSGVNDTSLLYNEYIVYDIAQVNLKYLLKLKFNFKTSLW

With `N.N.[Cl][Pt][Cl]` [Cisplatin, CDDP, (SP-4-2)-diamminedichloridoplatinum(II), reference compound], the IC50 was determined as 2.15 ± 0.29 µM in data set [1], 1.75 ± 0.09 µM in data set [4], 1.14 ± 0.07 µM in data set [5] (setting [9]) and 3.07 ± 0.43 µM in data set [6]. Moreover, in data set [2], the “Pt Uptake” value was found to be 9.23 ± 0.96 ng Pt per 10^6 Cells. Further, the PARP-1 cleavage result in data set [3] was “did not induce PARP-1 cleavage”. In addition, in data set [3], the “PARP-1 parylation (PAR expression)” value is “increase in PARP-1 parylation”.
Take `NC(=O)c1cccc(N)c1` [Compound 3-ABA, 3-aminobenzamide, reference compound]: the “PARP-1 parylation (PAR expression)” value in data set [3] is “No self-parylation of PARP-1”. For the same molecule, the IC50 in data set [5] (Homo sapiens, MSTO-211H, read-out: IC50 on MSTO-211H) was determined as 5412 ± 28 µM.
For the molecule `CC(=O)[O][Pt]([NH2])([NH2])([Cl])([Cl])[O]C(=O)CCCCCCNC(=O)c1cccc(NC(=O)OCC2c3ccccc3-c3ccccc32)c1` [Compound 7, (OC-6-44)-Acetato-[7-(3-(fmoc-amino)-benzamido)-heptanoato]-diammine-dichlorido-platinum(IV)], in data set [1], the “ratio IC50 (cisplatin)/IC50 (Pt(IV) complex), BR95” value (from here on “ratio IC50 (cisplatin)/IC50 … BR95”) is reported as 0.98 and 2.19 ± 0.13 µM corresponded to half-maximal inhibition (IC50). Besides, the “Log k′” value in data set [7] was determined as 5.84. Further, the “Pt Uptake” value in data set [2] was found to be 10.86 ± 1.17 ng Pt per 10^6 Cells. In data set [4], the “ratio IC50 (cisplatin)/IC50 (Pt(IV) complex), MM98” value is 3.9 and the midpoint of inhibition, the IC50, lay at 0.45 ± 0.08 µM. For the same molecule, the “ratio IC50 (cisplatin)/IC50 (Pt(IV) complex), MSTO-211H” value (shortened to “ratio IC50 … MSTO-211H”) in data set [5] (72 h treatment) is 0.77. The IC50 in data set [5] (setting [9]) came out at 1.48 ± 0.02 µM. Further, the “peak area disappeared after 24 h” value in data set [8] (24 h) was > 85%. For the same molecule, in data set [6], the “ratio IC50 (cisplatin)/IC50 (Pt(IV) complex), REN” value (from here on “ratio IC50 (cisplatin)/IC50 … REN”) is 1.4 and the IC50 amounted to 2.22 ± 0.08 µM.
Consider `CC(=O)[O][Pt]([NH2])([NH2])([Cl])([Cl])[O]C(=O)CCNC(=O)c1cccc(N)c1` [Compound 8, (OC-6-44)-Acetato[3-(3-aminobenzamido)-propanoato]-diammine-dichlorido-platinum(IV)], for which, in data set [1], the “ratio IC50 (cisplatin)/IC50 … BR95” value turned out to be 0.038 and the IC50 amounted to 56.8 ± 4.3 µM. Further, in data set [7], the “Log k′” value was found to be 0.25. For the same molecule, the “Pt Uptake” value in data set [2] came out at 2.50 ± 1.16 ng Pt per 10^6 Cells. Besides, in data set [4], the “ratio IC50 (cisplatin)/IC50 (Pt(IV) complex), MM98” value was found to be 0.030 and the IC50 is 58.4 ± 2.7 µM. Besides, the “ratio IC50 … MSTO-211H” value in data set [5] (72 h treatment) stood at 0.039. For the same molecule, the IC50 in data set [5] (setting [9]) was determined as 28.9 ± 2.9 µM. For the same molecule, the “time to complete reduction” value in data set [8] stood at 8 h. In addition, in data set [6], the “ratio IC50 (cisplatin)/IC50 … REN” value was found to be 0.065 and inhibition was half-maximal at 46.9 ± 3.2 µM (IC50).
Turning to `CC(=O)[O][Pt]([NH2])([NH2])([Cl])([Cl])[O]C(=O)CCCCCCNC(=O)c1cccc(N)c1` [Compound 9, (OC-6-44)-Acetato-[7-(3-aminobenzamido)-heptanoato]-diammine-dichlorido-platinum(IV)], the “ratio IC50 (cisplatin)/IC50 … BR95” value in data set [1] is listed as 0.054. Also, the IC50 in data set [1] came out at 39.7 ± 2.7 µM; in data set [4], 44.1 ± 3.5 µM; in data set [5] (setting [9]), 54.9 ± 3.1 µM; in data set [6], 38.9 ± 2.2 µM. For the same molecule, the “Log k′” value in data set [7] amounted to 0.34. For the same molecule, the “Pt Uptake” value in data set [2] stood at 3.12 ± 0.78 ng Pt per 10^6 Cells. In addition, the “ratio IC50 … MSTO-211H” value in data set [5] (72 h treatment) came out at 0.021. For the same molecule, the “time to complete reduction” value in data set [8] is listed as 8 h. Besides, the “ratio IC50 (cisplatin)/IC50 … REN” value in data set [6] was found to be 0.079.
